What all share (type): functional
One experiment relates to A549. Nature of the experiment: Cytotoxicity against human A549 cells after 6 days by MTT assay. As to conditions: A549, 144 h, read-out: ED50 (the source's name). (In general: Formazan colour is commonly taken as a measure of viable cells.)
The test system of another experiment is HT-29. Kind of experiment: Cytotoxicity against human HT-29 cells after 6 days by MTT assay. As to conditions: HT-29, 144 h, read-out: ED50 (the source's name).
In another experiment the test system is KB. Nature of the experiment: Cytotoxicity against human KB cells after 3 days by MTT assay. As to conditions: 72 h, read-out: ED50 (the source's name).
In another experiment the test system is P388. Nature of the experiment: Cytotoxicity against mouse P388 cells after 3 days by MTT assay. The conditions noted are these: P388, 72 h, read-out: ED50 (the source's name).

SMILES strings stand for the structures. In brackets after ≈: the same amount, converted by molar mass.

On to `COc1cc(C2C(C(=O)N3CCC=CC3=O)[C@H](c3cc(OC)c(OC)c(OC)c3)[C@@H]2C(=O)N2CCC=CC2=O)cc(OC)c1OC` (stereo partly specified) [PIPLARTINE DIMER A], for which the EC50 with A549 came to 2.21 µg/mL (≈ 3.48 µM); with HT-29, 2.49 µg/mL (≈ 3.92 µM); with KB it was 3.9 µg/mL (≈ 6.14 µM); with P388 it was 3.06 µg/mL (≈ 4.82 µM).

As for `COc1cc(CCC(=O)N2CCC=CC2=O)cc2c1OCO2`, the EC50 was found to be 5.76 µg/mL (≈ 19 µM) in the experiment with A549, 3.8 µg/mL (≈ 12.5 µM) in the experiment with HT-29, 4.99 µg/mL (≈ 16.5 µM) in the experiment on KB and 2.21 µg/mL (≈ 7.29 µM) with P388.

For the compound `COc1cc(/C=C/C(=O)N2CCC=CC2=O)cc(OC)c1OC` [PIPLARTINE], the EC50 in the experiment with A549 is 0.6 µg/mL (≈ 1.89 µM); with HT-29, 0.45 µg/mL (≈ 1.42 µM); in the experiment with KB, 1.8 µg/mL (≈ 5.67 µM); in the experiment on P388, 0.9 µg/mL (≈ 2.84 µM).

For the compound `COc1cc(/C=C/C(=O)N2CCC=CC2=O)cc2c1OCO2`, the EC50 in the experiment with A549 amounted to 2.57 µg/mL (≈ 8.53 µM); with HT-29, 2.15 µg/mL (≈ 7.14 µM); in the experiment with KB, 2.62 µg/mL (≈ 8.7 µM); in the experiment on P388, 0.43 µg/mL (≈ 1.43 µM).

These data come from ChEMBL document CHEMBL1158932, “Cytotoxic pyridone alkaloids from the leaves of Piper aborescens” (1990).
